Results on 15 compounds are retold here after PubChem BioAssay (NCI).

The structures appear in SMILES notation.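 Tested at 5 concentrations; 48 h exposure; 96-well plates; endpoints linearly interpolated, else capped at highest concentration. At the GI50, growth is halved. Definition used: TGI = concentration required for complete inhibition of growth.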

Common to all, as to experiment: NCI anticancer screen, dose series, 48 h
The subject of assay [1] is MALME-3M melanoma.
Assay [2] deals with KM12 colon.
Assay [3] relates to DMS 273 small cell lung.
Assay [4] concerns DMS 114 small cell lung.
Assay [5] deals with EKVX NSCLC.
The test system of assay [6] is SK-MEL-2 melanoma.
The test system of assay [7] is RPMI-8226 leukemia.
The subject of assay [8] is XF 498 CNS.
Assay [9] deals with HS 578T breast.
The subject of assay [10] is SR leukemia.

`Cc1nc2ccccc2c(=O)n1-c1ccccc1F`: the TGI in assay [1], in [2], in [3], in assay [4], in [5] and in [6] was greater than 100 µM in each case.
Take `N.N.O=C([O-])P(=O)([O-])[O-].[Na+].[Pt+4]`: the GI50 in assay [1], in assay [2], in [3], in [5], in [6] and in assay [7] was greater than 100 µM in each case. Also, the TGI in [1], in assay [2], in [3], in assay [5], in assay [6] and in assay [7] was greater than 100 µM each time.
On to `Nc1ncn(C2CC(O)C(CO)O2)c(=O)n1` (stereo not drawn), for which the TGI in [8] is greater than 80.8 µM; in [9], 23.5 µM; in assay [1], greater than 375 µM; in [2], greater than 281 µM; in assay [4], greater than 375 µM; in [10] it was greater than 141 µM. Besides, the TGI in [5] was greater than 293 µM; in [6] it was 232 µM; in assay [7], greater than 375 µM.
For the compound `O=C(Nc1ccc(Cl)cc1Cl)C(=O)C(C(=O)c1ccncc1)C1OC(=O)c2ccccc21` (stereo not drawn), the TGI in assay [8], in assay [1], in assay [2], in assay [4], in [10] and in assay [5] was greater than 100 µM in each case. Further, the TGI in assay [7] was greater than 100 µM.
As for `COc1ccc(CNc2nc3cc(C(F)(F)F)ccc3nc2C)cc1OC`, the TGI was greater than 100 µM in assay [8]; 44.1 µM in [1]; 83 µM in assay [2]; 48.9 µM in [3]; 72.6 µM in assay [5]; 70.1 µM in assay [6]. In addition, the TGI in assay [7] was determined as 97 µM.
In the case of `COc1cccc(N2C(=O)[C@H]3CC(C)c4c([nH]c5ccccc45)[C@H]3C2=O)c1` (stereo partly drawn), the TGI in assay [8], in [1], in assay [2], in assay [3], in [5] and in assay [6] was greater than 100 µM each time. In assay [7], this compound came in with a TGI greater than 100 µM.
As to `N#CCC(=O)NC1C2CC3CC(C2)CC1C3` (stereo not drawn), the TGI in [1] was 42.6 µM; in assay [2], 32.5 µM; in assay [3], 48.2 µM; in [4], 30.5 µM; in assay [5], 33.9 µM; in assay [6] it was 55.7 µM. Moreover, the TGI in [7] was greater than 100 µM.
For `COc1ccc(-c2cc(=O)c3ccccc3[nH]2)c(OC)c1`, the TGI in [1], in assay [2], in assay [3], in assay [4], in assay [10] and in assay [5] was greater than 100 µM each time. For the same compound, the TGI in assay [7] is greater than 100 µM.
`Fc1ccc(C2SCc3nc4ccccc4n32)cc1Cl` (stereo not drawn): the TGI was 31.7 µM in assay [8]; 31 µM in assay [1]; 39.8 µM in [2]; 57.4 µM in [4]; greater than 100 µM in [10]; 92.8 µM in [5].
Consider `Cc1ccc(-c2cc(=O)c3cc(C)c(C)c(C(=O)O)c3o2)cc1C`, for which the TGI in assay [1], in assay [2], in assay [3], in assay [4], in assay [10] and in assay [5] was greater than 100 µM throughout. In addition, the TGI in [6] and in assay [7] was greater than 100 µM throughout.
For `N#CCc1ccc(C(C#N)/C(CCCC(=O)Nc2cccc([N+](=O)[O-])c2)=N/NC(N)=S)cc1` (stereo not drawn), the TGI in assay [1], in assay [2], in [3], in assay [4], in assay [10] and in assay [5] was greater than 100 µM each time. For the same compound, the TGI in [6] and in [7] was greater than 100 µM throughout.
For `O=c1[nH]c(=O)n(C2OC(CO)C(O)C(O)C2O)cc1F` (stereo not drawn), the TGI in assay [8], in [9], in [1], in [2], in assay [4] and in assay [10] was greater than 100 µM throughout. Also, the TGI in [5], in assay [6] and in assay [7] was greater than 100 µM each time.
For the compound `CCCCN1CSC(=S)N(Cc2ccccc2)C1`, the TGI is greater than 100 µM in [9]; greater than 93.5 µM in assay [1]; greater than 100 µM in assay [2]; greater than 100 µM in assay [10]; 78.7 µM in assay [5]; greater than 100 µM in assay [6]. This compound also displayed a TGI in assay [7] of 59 µM.
In the case of `COC(=O)[C@H](Cc1c[nH]c2ccccc12)NC(=O)[C@@H](OC)[C@@H]1Cc2cc3cc(OC4CC(OC5CC(O)C(O)C(C)O5)C(O)C(C)O4)c(C)c(O)c3c(O)c2C(=O)[C@H]1OC1CC(OC2CC(OC3CC(C)(O)C(O)C(C)O3)C(O)C(C)O2)C(O)C(C)O1` (stereo partly drawn), the GI50 was 0.00566 µM in [9]; 0.0039 µM in assay [1]; 0.00558 µM in assay [2]; 0.00376 µM in assay [10]; 0.0125 µM in assay [5]; 0.0049 µM in assay [6]. The GI50 in assay [7] is 0.00557 µM. Moreover, the TGI is 0.157 µM in assay [9]; 0.0184 µM in assay [1]; 1.05 µM in [2]; greater than 8.99 µM in [10]; 3 µM in assay [5]; 0.0145 µM in [6]. Moreover, the TGI in assay [7] came out at 0.0607 µM.
For the compound `O=C1/C(=C/c2ccc(O)cc2)CSc2ccc(Cl)cc21`, the GI50 is 2.9 µM in assay [9]; 16.6 µM in assay [1]; 3.59 µM in [2]; 2.14 µM in assay [10]; 16.4 µM in [5]; 19.1 µM in assay [6]. For the same compound, in assay [7], the GI50 is 3.62 µM. Besides, the TGI in [9] was 7.36 µM; in [1], 38 µM; in assay [2], 15.7 µM; in assay [10], greater than 100 µM; in assay [5], 32.4 µM; in assay [6], 51.8 µM. Besides, in [7], the TGI was greater than 100 µM.
